Columns and labels:
SARS-CoV-2 [1] = assay type: functional, organism-based, Vero E6; details: Severe acute respiratory syndrome coronavirus 2, 107, Vero C1008
SARS-CoV-2 [2] = assay type: functional, organism-based, Vero E6; details: Severe acute respiratory syndrome coronavirus 2, Vero C1008

SMILES	EC50 (SARS-CoV-2 [1]) [nM]	EC50 (SARS-CoV-2 [2]) [nM]
O=C[C@H](C[C@@H]1CCNC1=O)NC(=O)[C@@H]1[C@H]2CCC[C@H]2CN1C(=O)COc1ccc(Cl)cc1Cl	540	–
O=c1c(O)c(-c2cc(O)c(O)c(O)c2)oc2cc(O)cc(O)c12 [MYRICETIN]	–	8000
COc1ccc(OCC(=O)N2C[C@H]3[C@@H]([C@H]2C(=O)N[C@H](C=O)C[C@@H]2CCNC2=O)C3(C)C)cc1	860	–

From ChEMBL document CHEMBL5223130, “Targeting SARS-CoV-2 Main Protease for Treatment of COVID-19: Covalent Inhibitors Structure-Activity Relationship Insights and Evolution Perspectives” (J Med Chem, 2022)
